Drawing on US12473304B2, “Heterocyclic PAD4 inhibitors” (BRISTOL-MYERS SQUIBB COMPANY, priority 2020, dated 2025), this text covers IC50 for 21 molecules.

This assay deals with human PAD4 (hPAD4) (Homo sapiens (Human), UniProt Q9UM07). The assay can be described thus: RFMS Human PAD4 Functional Assay 1. Format: biochemical. The following applies: RFMS assay 1; 5 nM hPAD4, 250 μM BAEE substrate, 50 μM calcium, 37° C. A digest of the protocol: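 Citrullination product read by RapidFire triple-quad MRM against a modified-citrulline internal standard, after TCA stop and 30 min phenyl glyoxal step at 37 °C. Reaction: 250 μM BAEE, 5 nM human PAD4, 90 min at 37 °C, pH 7.5 HEPES buffer with 50 μM calcium and 5 μM TPEN, following 30 min compound–enzyme preincubation (max 50 μM).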
human PAD4 (hPAD4), sequence (Q9UM07 whole entry): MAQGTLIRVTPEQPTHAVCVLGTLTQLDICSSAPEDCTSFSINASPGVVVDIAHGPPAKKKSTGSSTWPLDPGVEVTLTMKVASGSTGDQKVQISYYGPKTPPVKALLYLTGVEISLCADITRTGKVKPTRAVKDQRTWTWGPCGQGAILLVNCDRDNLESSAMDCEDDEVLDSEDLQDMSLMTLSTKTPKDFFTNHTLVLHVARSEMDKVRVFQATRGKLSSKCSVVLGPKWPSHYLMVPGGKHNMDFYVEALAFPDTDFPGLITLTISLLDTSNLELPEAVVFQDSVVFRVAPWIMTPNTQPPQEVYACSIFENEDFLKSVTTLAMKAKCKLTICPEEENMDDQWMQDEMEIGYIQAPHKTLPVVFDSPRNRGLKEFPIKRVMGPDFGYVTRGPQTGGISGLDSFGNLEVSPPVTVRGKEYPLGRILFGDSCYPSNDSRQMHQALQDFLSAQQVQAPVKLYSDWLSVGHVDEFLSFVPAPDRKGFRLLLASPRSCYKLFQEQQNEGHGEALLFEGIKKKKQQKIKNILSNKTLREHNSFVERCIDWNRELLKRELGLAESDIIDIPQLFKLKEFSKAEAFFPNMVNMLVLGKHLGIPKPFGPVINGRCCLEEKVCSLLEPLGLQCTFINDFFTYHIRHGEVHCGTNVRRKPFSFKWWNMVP
Usually IC50 stands for the point on the concentration scale where inhibition reaches its midpoint. For the molecule `COc1cc(C(=O)N2C[C@H](N)C[C@@H](F)C2)cn2nc(-c3cc4cc(F)cc(C5CCN(C(C)=O)CC5)c4n3CC3CC3)c(C)c12` [Example 482, 1-(4-(2-(6-((3R,5R)-3-Amino-5-fluoropiperidine-1-carbonyl)-4-methoxy-3-methylpyrazolo[1,5-a]pyridin-2-yl)-1-(cyclopropylmethyl)-5-fluoro-1H-indol-7-yl)piperidin-1-yl)ethan-1-one], the IC50 turned out to be 60 nM. Then `COc1cc(C(=O)N2CCC[C@@H](N)C2)cn2nc(-c3cc4cc(F)cc(C5CCN(C(C)=O)CC5)c4n3CC3CC3)c(C)c12` [Example 483, (R)-1-(4-(2-(6-(3-Aminopiperidine-1-carbonyl)-4-methoxy-3-methylpyrazolo[1,5-a]pyridin-2-yl)-1-(cyclopropylmethyl)-5-fluoro-1H-indol-7-yl)piperidin-1-yl)ethan-1-one], with 150 nM. Then `Cc1c(-c2cc3cc(F)cc(C4CCN(C(=O)[C@H]5CC[C@H](O)CC5)CC4)c3n2CC2CC2)nn2cc(C(=O)N3CCC[C@@H](N)C3)ccc12` [Example 484, ((R)-3-Aminopiperidin-1-yl)(2-(1-(cyclopropylmethyl)-5-fluoro-7-(1-((1r,4r)-4-hydroxycyclohexane-1-carbonyl)piperidin-4-yl)-1H-indol-2-yl)-3-methylpyrazolo[1,5-a]pyridin-6-yl)methanone], with 150 nM; and `Cc1c(-c2cc3cc(F)cc(C4CCN(C(=O)[C@H]5CC[C@@H](O)CC5)CC4)c3n2CC2CC2)nn2cc(C(=O)N3CCC[C@@H](N)C3)ccc12` [Example 485, ((R)-3-Aminopiperidin-1-yl)(2-(1-(cyclopropylmethyl)-5-fluoro-7-(1-((1s,4s)-4-hydroxycyclohexane-1-carbonyl)piperidin-4-yl)-1H-indol-2-yl)-3-methylpyrazolo[1,5-a]pyridin-6-yl)methanone], with 150 nM; and `Cc1c(-c2cc3cc(F)cc(C4CCN(C(=O)[C@H]5CC[C@@H](O)CC5)CC4)c3n2CC2CC2)nn2cc(C(=O)N3C[C@H](N)C[C@@H](F)C3)ccc12` [Example 486, ((3R,5R)-3-Amino-5-fluoropiperidin-1-yl)(2-(1-(cyclopropylmethyl)-5-fluoro-7-(1-((1s,4s)-4-hydroxycyclohexane-1-carbonyl)piperidin-4-yl)-1H-indol-2-yl)-3-methylpyrazolo[1,5-a]pyridin-6-yl)methanone], with 70 nM.

For `Cc1c(-c2cc3cc(F)cc(C4CCN(C(=O)[C@H]5CC[C@H](O)CC5)CC4)c3n2CC2CC2)nn2cc(C(=O)N3C[C@H](N)C[C@@H](F)C3)ccc12` [Example 487, ((3R,5R)-3-Amino-5-fluoropiperidin-1-yl)(2-(1-(cyclopropylmethyl)-5-fluoro-7-(1-((1r,4r)-4-hydroxycyclohexane-1-carbonyl)piperidin-4-yl)-1H-indol-2-yl)-3-methylpyrazolo[1,5-a]pyridin-6-yl)methanone], the IC50 was 200 nM. Then `COC(C)(C)C(=O)N1CCC(c2cc(F)cc3cc(-c4nn5cc(C(=O)N6CCC[C@@H](N)C6)ccc5c4C)n(CC4CC4)c23)CC1` [Example 493, (R)-1-(4-(2-(6-(3-Aminopiperidine-1-carbonyl)-3-methylpyrazolo[1,5-a]pyridin-2-yl)-1-(cyclopropylmethyl)-5-fluoro-1H-indol-7-yl)piperidin-1-yl)-2-methoxy-2-methylpropan-1-one], with 110 nM; and `Cc1c(-c2cc3cc(F)cc(C4CCN(C(=O)CC(C)C)CC4)c3n2CC2CC2)nn2cc(C(=O)N3C[C@H](N)C[C@@H](F)C3)ccc12` [Example 495, 1-(4-(2-(6-((3R,5R)-3-Amino-5-fluoropiperidine-1-carbonyl)-3-methylpyrazolo[1,5-a]pyridin-2-yl)-1-(cyclopropylmethyl)-5-fluoro-1H-indol-7-yl)piperidin-1-yl)-3-methylbutan-1-one], with 330 nM; and `CO[C@H](C)C(=O)N1CCC(c2cc(F)cc3cc(-c4nn5cc(C(=O)N6CCC[C@@H](N)C6)ccc5c4C)n(CC4CC4)c23)CC1` [Example 497, (R)-1-(4-(2-(6-((R)-3-Aminopiperidine-1-carbonyl)-3-methylpyrazolo[1,5-a]pyridin-2-yl)-1-(cyclopropylmethyl)-5-fluoro-1H-indol-7-yl)piperidin-1-yl)-2-methoxypropan-1-one], with 40 nM. Consider `CO[C@H](C)C(=O)N1CCC(c2cc(F)cc3cc(-c4nn5cc(C(=O)N6C[C@H](N)C[C@@H](F)C6)ccc5c4C)n(CC4CC4)c23)CC1` [Example 498, (R)-1-(4-(2-(6-((3R,5R)-3-Amino-5-fluoropiperidine-1-carbonyl)-3-methylpyrazolo[1,5-a]pyridin-2-yl)-1-(cyclopropylmethyl)-5-fluoro-1H-indol-7-yl)piperidin-1-yl)-2-methoxypropan-1-one], for which the IC50 stood at 70 nM. For `CO[C@@H](C)C(=O)N1CCC(c2cc(F)cc3cc(-c4nn5cc(C(=O)N6CCC[C@@H](N)C6)ccc5c4C)n(CC4CC4)c23)CC1` [Example 499, (S)-1-(4-(2-(6-((R)-3-Aminopiperidine-1-carbonyl)-3-methylpyrazolo[1,5-a]pyridin-2-yl)-1-(cyclopropylmethyl)-5-fluoro-1H-indol-7-yl)piperidin-1-yl)-2-methoxypropan-1-one] the value was 150 nM; for `CO[C@@H](C)C(=O)N1CCC(c2cc(F)cc3cc(-c4nn5cc(C(=O)N6C[C@H](N)C[C@@H](F)C6)ccc5c4C)n(CC4CC4)c23)CC1` [Example 500, (S)-1-(4-(2-(6-((3R,5R)-3-Amino-5-fluoropiperidine-1-carbonyl)-3-methylpyrazolo[1,5-a]pyridin-2-yl)-1-(cyclopropylmethyl)-5-fluoro-1H-indol-7-yl)piperidin-1-yl)-2-methoxypropan-1-one], 240 nM; for `COC(C)(C)C(=O)N1CCC(c2cc(F)cc3cc(-c4nn5cc(C(=O)N6C[C@H](N)C[C@@H](F)C6)ccc5c4C)n(CC4CC4)c23)CC1` [Example 501, 1-(4-(2-(6-((3R,5R)-3-Amino-5-fluoropiperidine-1-carbonyl)-3-methylpyrazolo[1,5-a]pyridin-2-yl)-1-(cyclopropylmethyl)-5-fluoro-1H-indol-7-yl)piperidin-1-yl)-2-methoxy-2-methylpropan-1-one], 130 nM.

For the molecule `COCC(=O)N1CCC(c2cc(F)cc3cc(-c4nn5cc(C(=O)N6CCC[C@@H](N)C6)ccc5c4C)n(CC4CC4)c23)CC1` [Example 502, (R)-1-(4-(2-(6-(3-Aminopiperidine-1-carbonyl)-3-methylpyrazolo[1,5-a]pyridin-2-yl)-1-(cyclopropylmethyl)-5-fluoro-1H-indol-7-yl)piperidin-1-yl)-2-methoxyethan-1-one], the IC50 was 70 nM.

For the molecule `COCC(=O)N1CCC(c2cc(F)cc3cc(-c4nn5cc(C(=O)N6C[C@H](N)C[C@@H](F)C6)ccc5c4C)n(CC4CC4)c23)CC1` [Example 503, 1-(4-(2-(6-((3R,5R)-3-Amino-5-fluoropiperidine-1-carbonyl)-3-methylpyrazolo[1,5-a]pyridin-2-yl)-1-(cyclopropylmethyl)-5-fluoro-1H-indol-7-yl)piperidin-1-yl)-2-methoxyethan-1-one], the IC50 came to 60 nM. Then `Cc1c(-c2cc3cc(F)cc(C4CCN(C(=O)C5CC(O)(C(F)(F)F)C5)CC4)c3n2CC2CC2)nn2cc(C(=O)N3CCC[C@@H](N)C3)ccc12` (stereo partly drawn) [Example 504, (R)-(3-Aminopiperidin-1-yl)(2-(1-(cyclopropylmethyl)-5-fluoro-7-(1-(3-hydroxy-3-(trifluoromethyl)cyclobutane-1-carbonyl)piperidin-4-yl)-1H-indol-2-yl)-3-methylpyrazolo[1,5-a]pyridin-6-yl)methanone], with 110 nM; and `CC(=O)N1CCC(c2cc(F)cc3cc(-c4nn5cc(C(=O)N6CCC[C@@H](N)C6)ccc5c4C)n(CC4CC4)c23)CC1` [Example 506, (R)-1-(4-(2-(6-(3-Aminopiperidine-1-carbonyl)-3-methylpyrazolo[1,5-a]pyridin-2-yl)-1-(cylcopropylmethyl)-5-fluoro-1H-indol-7-yl)piperidin-1-yl)ethan-1-one], with 70 nM. For `CC(=O)N1CCC(c2cc(F)cc3cc(-c4nn5cc(C(=O)N6C[C@H](N)C[C@@H](F)C6)ccc5c4C)n(CC4CC4)c23)CC1` [Example 507, 1-(4-(2-(6-((3R,5R)-3-Amino-5-fluoropiperidine-1-carbonyl)-3-methylpyrazolo[1,5-a]pyridin-2-yl)-1-(cyclopropylmethyl)-5-fluoro-1H-indol-7-yl)piperidin-1-yl)ethan-1-one] the value was 170 nM; for `COCC(=O)N1CCC(c2nccc3cc(-c4nn5cc(C(=O)N6C[C@H](N)C[C@@H](F)C6)cc(OC)c5c4C)n(CC4CC4)c23)CC1` [Example 511, 1-(4-(2-(6-((3R,5R)-3-Amino-5-fluoropiperidine-1-carbonyl)-4-methoxy-3-methylpyrazolo[1,5-a]pyridin-2-yl)-1-(cyclopropylmethyl)-1H-pyrrolo[2,3-c]pyridin-7-yl)piperidin-1-yl)-2-methoxyethan-1-one], 10 nM; for `COc1cc(C(=O)N2C[C@H](N)C[C@@H](F)C2)cn2nc(-c3cc4cccc(C5CN(C(=O)[C@H]6CC[C@H](O)CC6)C5)c4n3CC3CC3)c(C)c12` [Example 514, ((3R,5R)-3-Amino-5-fluoropiperidin-1-yl)(2-(1-(cyclopropylmethyl)-7-(1-((1R,4R)-4-hydroxycyclohexane-1-carbonyl)azetidin-3-yl)-1H-indol-2-yl)-4-methoxy-3-methylpyrazolo[1,5-a]pyridin-6-yl)methanone], 60 nM. Then `COc1cc(C(=O)N2CCC[C@@H](N)C2)cn2nc(-c3cc4cccc(C5CN(C(=O)C(C)(C)OC)C5)c4n3CC3CC3)c(C)c12` [Example 516, (R)-1-(3-(2-(6-(3-Aminopiperidine-1-carbonyl)-4-methoxy-3-methylpyrazolo[1,5-a]pyridin-2-yl)-1-(cyclopropylmethyl)-1H-indol-7-yl)azetidin-1-yl)-2-methoxy-2-methylpropan-1-one], with 1040 nM.
